Data reported in patent US20180200257A1, “METHODS FOR THE TREATMENT OF INFLAMMATORY DISORDERS” (Galapagos NV, priority 2015, published 2018).

Test system: subjects with moderately to severely active RA who have an inadequate response to methotrexate (MTX)
Assay: Study 1 (add-on to MTX) - Aspartate Aminotransferase (AST) levels
Type: in vivo, human
Details: 12 weeks results
Experimental: Double-blind, placebo-controlled add on study in subjects with moderately to severely active RA who have an inadequate response to methotrexate (MTX) (oral or parenteral).
595 subjects randomized to one of 6 dose regimens of Compound 1 (dosed as [Compound 1:HCl:3H2O]) (3 dose levels administered either once or twice daily) or placebo on top of each subject's stable dose of MTX.
Compound 1 (dosed as [Compound 1:HCl:3H2O]) is dosed for twelve weeks once daily (q.d.) (50 mg, 100 mg or 200 mg) or twice daily (b.i.d.) (25 mg, 50 mg or 100 mg); or placebo.
At Week 12, the subjects on placebo who have not achieved 20% improvement in swollen joint count (SJC66) and tender joint count (TJC68) are re-randomized automatically to receive Compound 1 (dosed as a [Compound 1:HCl:3H2O]) either at 100 mg q.d. or 50 mg b.i.d. doses in a blinded fashion; subjects on 50 mg q.d. who have not achieved 20% improvement in SJC66 and TJC68 will be assigned to 100 mg q.d. and subjects on 25 mg b.i.d. that have not achieved a 20% improvement in SJC66 and TJC68 will be assigned to 50 mg b.i.d. Subjects who switch treatment at week 12 are handled as if they discontinued at week 12 for the purpose of statistical analysis, whereas subjects in the other groups will maintain their randomized treatment until Week 24.
AST levels determination is available at Quest Diagnostics, Clinical Trials, Quest House, 125-135 Staines Road, Hounslow, Middlesex, TW3 3JB, United Kingdom under Catalogue n#84450. For Study 3, the data are obtained at BARC Europe, 3B,Industrie Park, Zwijnaarde, B-9052 Ghent, Belgium.
AST catalyzes the transamination of aspartate and 2-oxoglutarate, forming L-glutamate and oxalacetate. The oxalacetate is reduced to L-malate by malate dehydrogenase, whilst NADH is converted to NAD+, measured spectrophotometrically. Guidelines for the AST value have been issued by the association for Clinical Biochemistry and Laboratory Medicine, 130-132 Tooley Street LONDON SE1 2TU, united Kingdom, wherein the AST value should be below 34 U/l in Female and below 45 U/L in male. As disclosed in the respective study protocols for Study 1 or 2, at week 12, depending on the outcome of their treatment, the subjects may be continued in their initial treatment course, or reassigned to another treatment group in a randomized blinded fashion until week 24. Therefore, the number of subjects (N) for the period of either 12 weeks, or 24 weeks is provided to reflect this redistribution at week 12.

SMILES: O=C(Nc1nc2cccc(-c3ccc(CN4CCS(=O)(=O)CC4)cc3)n2n1)C1CC1 [Compound 1, cyclopropanecarboxylic acid {5-[4-(1,1-dioxo-thiomorpholin-4-ylmethyl)-phenyl]-[1,2,4]triazolo[1,5-a]pyridin-2-yl}-amide]
- Study 1 - AST Mean CFB (50 mg q.d., week 1): 1 IU/L
- Study 1 - AST Mean percentage CFB (50 mg q.d., week 1): 7%
- Study 1 - AST Mean CFB (50 mg q.d., week 2): 0 IU/L
- Study 1 - AST Mean percentage CFB (50 mg q.d., week 2): 5%
- Study 1 - AST Mean CFB (50 mg q.d., week 4): 0 IU/L
- Study 1 - AST Mean percentage CFB (50 mg q.d., week 4): 5%
- Study 1 - AST Mean CFB (50 mg q.d., week 8): 0 IU/L
- Study 1 - AST Mean percentage CFB (50 mg q.d., week 8): 7%
- Study 1 - AST Mean CFB (50 mg q.d., week 12): 1 IU/L
- Study 1 - AST Mean percentage CFB (50 mg q.d., week 12): 10%
- Study 1 - AST Mean CFB (100 mg q.d., week 1): 3 IU/L
- Study 1 - AST Mean percentage CFB (100 mg q.d., week 1): 14%
- Study 1 - AST Mean CFB (100 mg q.d., week 2): 1 IU/L
- Study 1 - AST Mean percentage CFB (100 mg q.d., week 2): 9%
- Study 1 - AST Mean CFB (100 mg q.d., week 4): 2 IU/L
- Study 1 - AST Mean percentage CFB (100 mg q.d., week 4): 11%
- Study 1 - AST Mean CFB (100 mg q.d., week 8): 3 IU/L
- Study 1 - AST Mean percentage CFB (100 mg q.d., week 8): 17%
- Study 1 - AST Mean CFB (100 mg q.d., week 12): 2 IU/L
- Study 1 - AST Mean percentage CFB (100 mg q.d., week 12): 16%
- Study 1 - AST Mean CFB (200 mg q.d., week 1): 3 IU/L
- Study 1 - AST Mean percentage CFB (200 mg q.d., week 1): 16%
- Study 1 - AST Mean CFB (200 mg q.d., week 2): 2 IU/L
- Study 1 - AST Mean percentage CFB (200 mg q.d., week 2): 13%
- Study 1 - AST Mean CFB (200 mg q.d., week 4): 3 IU/L
- Study 1 - AST Mean percentage CFB (200 mg q.d., week 4): 19%
- Study 1 - AST Mean CFB (200 mg q.d., week 8): 5 IU/L
- Study 1 - AST Mean percentage CFB (200 mg q.d., week 8): 27%
- Study 1 - AST Mean CFB (200 mg q.d., week 12): 5 IU/L
- Study 1 - AST Mean percentage CFB (200 mg q.d., week 12): 29%
- Study 1 - AST Mean CFB (2 × 25 mg b.i.d., week 1): 0 IU/L
- Study 1 - AST Mean percentage CFB (2 × 25 mg b.i.d., week 1): 3%
- Study 1 - AST Mean CFB (2 × 25 mg b.i.d., week 2): 0 IU/L
- Study 1 - AST Mean percentage CFB (2 × 25 mg b.i.d., week 2): 6%
- Study 1 - AST Mean CFB (2 × 25 mg b.i.d., week 4): 0 IU/L
- Study 1 - AST Mean percentage CFB (2 × 25 mg b.i.d., week 4): 6%
- Study 1 - AST Mean CFB (2 × 25 mg b.i.d., week 8): 0 IU/L
- Study 1 - AST Mean percentage CFB (2 × 25 mg b.i.d., week 8): 10%
- Study 1 - AST Mean CFB (2 × 25 mg b.i.d., week 12): 2 IU/L
- Study 1 - AST Mean percentage CFB (2 × 25 mg b.i.d., week 12): 14%
- Study 1 - AST Mean CFB (2 × 50 mg b.i.d., week 1): 1 IU/L
- Study 1 - AST Mean percentage CFB (2 × 50 mg b.i.d., week 1): 6%
- Study 1 - AST Mean CFB (2 × 50 mg b.i.d., week 2): 0 IU/L
- Study 1 - AST Mean percentage CFB (2 × 50 mg b.i.d., week 2): 6%
- Study 1 - AST Mean CFB (2 × 50 mg b.i.d., week 4): 2 IU/L
- Study 1 - AST Mean percentage CFB (2 × 50 mg b.i.d., week 4): 14%
- Study 1 - AST Mean CFB (2 × 50 mg b.i.d., week 8): 2 IU/L
- Study 1 - AST Mean percentage CFB (2 × 50 mg b.i.d., week 8): 14%
- Study 1 - AST Mean CFB (2 × 50 mg b.i.d., week 12): 2 IU/L
- Study 1 - AST Mean percentage CFB (2 × 50 mg b.i.d., week 12): 17%
